Experimental data reported in PubChem BioAssay (NCI).
Values joined by “and” are separate entries in the source; they are usually repeats but may differ in a detail not shown here. Equal values may be shown once.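 Dose response: 5 concentrations. Exposure: 48 h. Format: 96-well plates. Endpoint: linear interpolation; highest concentration if not reached. At the GI50, growth is halved. TGI denotes the concentration required for complete inhibition of growth.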

Key:
Test in all cases: growth of human tumour cells (NCI), 48 h
A498 renal = tested on: A498 renal
K-562 leukemia = tested on: K-562 leukemia
U251 CNS = tested on: U251 CNS
UO-31 renal = tested on: UO-31 renal
SNB-19 CNS = tested on: SNB-19 CNS
HCT-15 colon = tested on: HCT-15 colon
OVCAR-3 ovarian = tested on: OVCAR-3 ovarian
HS 578T breast = tested on: HS 578T breast
DU-145 prostate = tested on: DU-145 prostate
NCI-H226 lung = tested on: NCI-H226 lung

Structure (SMILES) | GI50 (A498 renal) | TGI (A498 renal) | GI50 (K-562 leukemia) | TGI (K-562 leukemia) | GI50 (U251 CNS) | TGI (U251 CNS) | GI50 (UO-31 renal) | TGI (UO-31 renal) | GI50 (SNB-19 CNS) | TGI (SNB-19 CNS) | GI50 (HCT-15 colon) | TGI (HCT-15 colon) | GI50 (OVCAR-3 ovarian) | TGI (OVCAR-3 ovarian) | GI50 (HS 578T breast) | TGI (HS 578T breast) | GI50 (DU-145 prostate) | TGI (DU-145 prostate) | GI50 (NCI-H226 lung) | TGI (NCI-H226 lung)
CN(C(=O)c1ccc(F)cc1C(F)(F)F)C1CCN(c2nnc(-c3ccnn3C)c3ccccc23)CC1 | 54.8 µM | > 100 µM | 27.3 µM | > 100 µM | 59.3 µM | > 100 µM | 22 µM | > 100 µM | 51.7 µM | > 100 µM | 39.9 µM | > 100 µM | 38.1 µM | > 100 µM | 50.8 µM | > 100 µM | 75.4 µM | > 100 µM | 28.2 µM | > 100 µM
COc1ccc(C(CC(=O)c2ccccc2)C(C(=O)c2ccccc2)C(c2ccc(OC)cc2)C2C(=O)NC(=O)NC2=O)cc1 (stereo unspecified) | 11 µM | 43.5 µM | 39.1 µM | > 100 µM | 10.7 µM | 51.3 µM | 13.5 µM | 47.7 µM | 13.7 µM | > 100 µM | 21.9 µM | > 100 µM | 11.9 µM | 44.4 µM | 25.9 µM | > 100 µM | 19.2 µM | 70.5 µM | 20 µM | 62 µM
Brc1c[n+](Cc2ccc3ccccc3c2)cn1Cc1ccc2ccccc2c1 | 1.88 µM | 5.09 µM | 1.84 µM | 10.6 µM | 1.67 µM | 3.51 µM | 7.09 µM | 23.1 µM | 1.41 µM | 2.75 µM | 11.5 µM | 25.7 µM | 1.41 µM | 2.86 µM | 1.92 µM | 4.84 µM | 2.54 µM | 7.75 µM | 2.24 µM | 5.87 µM
O=C1OCC(c2ccc(O)c(O)c2)=C1c1cc(O)c(O)c(O)c1 | > 100 µM | > 100 µM | 21.2 µM | 46.1 µM | 17.9 µM | 32.7 µM | 63.4 µM | > 100 µM | 25.3 µM | > 100 µM | 19.3 µM | 44.1 µM | 12.9 µM | 26.5 µM | 87.9 µM | > 100 µM | 32.7 µM | > 100 µM | 69 µM | > 100 µM
Cc1c(Cl)cccc1NC(=O)CC1Sc2ccccc2NC1=O (stereo unspecified) |  | 38.2 µM and 37.5 µM |  | 99.7 µM and > 100 µM |  | 34.9 µM and 33.6 µM |  | 49.2 µM and 54.8 µM |  | 52.8 µM and 42.5 µM | 8.53 µM and 41.9 µM | > 100 µM |  | 31.2 µM and 41.9 µM |  | 25.3 µM |  | > 100 µM |  | 41.7 µM and 54.8 µM
c1ccc2c(c1)O[As](O[As]1Oc3ccccc3O1)O2 | 1.6 µM | 5.64 µM | 1.66 µM | 7.28 µM | 1.35 µM | 4.43 µM | 1.97 µM | 11.3 µM | 5.56 µM | 19.6 µM | 2.33 µM | 17 µM | 2.35 µM | 7.41 µM | 3.47 µM | 65.9 µM | 3.96 µM | 15.2 µM | 3.61 µM | 19.7 µM
OCCN1CCN(CCCN2c3ccccc3Sc3ccc(C(F)(F)F)cc32)CC1 | 2.28 µM and 9.65 µM and 10.4 µM | 10.3 µM and 23.4 µM and 28.1 µM | 1.27 µM and 3.18 µM and 2.05 µM | 2.83 µM and 10.7 µM and 4.73 µM | 1.45 µM and 5.19 µM and 3.66 µM | 5.44 µM and 18.4 µM and 14.5 µM | 1.96 µM and 6.09 µM and 4.53 µM | 8.84 µM and 21.2 µM and 20 µM | 2.08 µM and 14 µM and 12.3 µM | 8.34 µM and 30.8 µM and 27.3 µM | 1.97 µM and 4.22 µM and 3.7 µM | 6.88 µM and 18.3 µM and 15 µM | 4.34 µM and 12.4 µM | 10.6 µM and 25.5 µM | 1.86 µM and 13.5 µM and 8.23 µM | 13.1 µM and 60.6 µM and 41.6 µM | 6.29 µM and 12.9 µM | 12.7 µM and 25.7 µM | 5.3 µM and 12.7 µM and 12.3 µM | 11.8 µM and 27.6 µM and 25.7 µM
CO/N=C(\c1ccccc1)c1cnn(-c2ccccc2)c1N | > 16.8 µM | > 25 µM | > 25 µM | > 25 µM | > 25 µM | > 25 µM | > 25 µM | > 25 µM | > 25 µM | > 25 µM | > 25 µM | > 25 µM | > 25 µM | > 25 µM | > 25 µM | > 25 µM | > 25 µM | > 25 µM | > 25 µM | > 25 µM
O=C(NO)c1ccc(C(=O)NO)cc1 |  | > 100 µM |  | > 100 µM |  | 35.7 µM |  | > 100 µM |  | > 100 µM |  | > 100 µM |  | > 100 µM |  | > 100 µM |  | > 100 µM |  | > 100 µM
Cn1cc(-c2cc3c(Nc4ccc(CC(=O)Nc5cc(C(C)(C)C)on5)cc4)ncnc3[nH]2)cn1 | 0.692 µM and 1.07 µM | 1.81 µM and 3.03 µM | 1.21 µM and 0.596 µM | > 100 µM and 11.2 µM | 0.586 µM and 0.38 µM | 5.84 µM and 6.41 µM | 2.43 µM and 2.33 µM | 7.04 µM and 6.58 µM | 0.492 µM and 0.399 µM | 5.31 µM and 8.4 µM | 3.26 µM and 2.91 µM | 13.8 µM and 10.3 µM | 0.496 µM and 0.36 µM | 2.48 µM and 2.54 µM | 0.42 µM and 0.276 µM | 1.72 µM and 1.56 µM | 0.83 µM and 0.491 µM | 3.84 µM and 2.89 µM | 0.899 µM and 0.54 µM | 4.18 µM and 4.1 µM
CC1(C)CCC(S(=O)(=O)c2ccc3c(c2)/C(=N\O)c2cc(S(=O)(=O)N4CCC(O)(c5cccc(C(F)(F)F)c5)CC4)ccc2-3)CC1 | 1.69 µM | 3.85 µM | 0.0219 µM | 0.0492 µM | 0.02 µM | 0.0384 µM | 1.67 µM | 5.49 µM | 0.0673 µM | 0.215 µM | 0.0694 µM | 4.52 µM | 0.0211 µM | 0.0442 µM | 0.0287 µM | 0.0749 µM | 0.0319 µM | 0.115 µM | 0.0292 µM | 0.0988 µM
CC(C)C1CN1CC(O)Cn1ccnc1[N+](=O)[O-] (stereo unspecified) |  | > 100 µM |  | > 100 µM |  | > 100 µM |  | > 100 µM |  | > 100 µM |  | > 100 µM |  | > 100 µM |  | > 100 µM |  | > 100 µM |  | > 100 µM
O=C(c1ccccc1)c1ccc(-c2ccc(O)cc2)cc1 | 13 µM | > 58.9 µM | 2.92 µM | > 60.7 µM | 3.69 µM | 20.1 µM | 4.04 µM | 50.3 µM | 6.01 µM | > 100 µM | 5 µM | 27.7 µM | 7.59 µM | 31.6 µM | 17.3 µM | > 53.3 µM | 5.62 µM | 29.4 µM | 16.8 µM | > 73.7 µM
CN(C(=O)C1CCCCC1)c1ccccc1I(=O)=O | 52.1 µM | > 100 µM | 12.5 µM | 27.4 µM | 31.3 µM | > 100 µM | 51 µM | > 100 µM | 40.3 µM | > 100 µM | 23.3 µM | 59.2 µM | 30.5 µM | > 100 µM | 52.9 µM | > 100 µM | 55.9 µM | > 100 µM | > 100 µM | > 100 µM
OCC1SC(n2cnc3cncnc32)C(O)C1O (stereo unspecified) | > 100 µM | > 100 µM | > 100 µM | > 100 µM | > 100 µM | > 100 µM | > 100 µM | > 100 µM | > 100 µM | > 100 µM | > 100 µM | > 100 µM | > 100 µM | > 100 µM | > 100 µM | > 100 µM | > 100 µM | > 100 µM | > 100 µM | > 100 µM
